The nature of assay [1]: Delignification by per-acids (studies by the inventors).
Assay [2] in a line: Microbiocidal properties of per-acids (studies by the inventors).

Consider `CC(=O)O[O-].[Na+]` [peracetate], for which the “delignification of plant wall material” value in assay [1] is given as “very efficient delignification”. Besides, the microbiocidal properties entry in assay [2] is recorded as “very powerful microbiocidal properties”.

Consider `O=COO` [performate], for which the “delignification of plant wall material” value in assay [1] was “very efficient delignification”. Further, the microbiocidal properties entry in assay [2] was “very powerful microbiocidal properties”.

Values taken from patent publication US20160120186A1, “ENHANCEMENT AND CONTROL OF SEED GERMINATION WITH COMPOSITIONS COMPRISING A TRANSITION METAL CATALYST AND AN OXIDANT” (UNIVERSITY OF SASKATCHEWAN, priority 2013, published 2016).
